Where two headings read alike, the source gives them in different places.

For data set [1] the following is noted: cited from earlier work.
The next data set has as its target PKA-C (Mus musculus, UniProt P05132). Kind of data set: PKA-C catalyzed steady-state phosphorylation assay. The format is biochemical. As to conditions: for catalytic efficiency kcat/Km: spectrophotometric, 340 nm, 299 K, 50 mM MOPS pH 7.0, 20 mM DTT, 10 mM MgCl2, 5.0 mM ATP, 1.0 mM PEP, 0.2 mM NADH, triplicate.
A further data set can be described thus: NMR secondary structure. As to conditions: in the presence of DPC micelles.

“PLN1–20: peptide corresponding to the cytoplasmic domain Ia of phospholamban (MEKVQYLTRSAIRRASTIEM; UniProt P26678 1-20, looked up, fragment)”: the R-state population in data set [1] (free in solution) is recorded as 100%. Further, in the data set with PKA-C (absence of membranes), the “catalytic efficiency kcat/Km” value is on record as ~ 0.6 µM^−1s^−1. Besides, the “secondary structure (CSI and SSP scores)” value in “NMR secondary structure” was “the peptide forms a stable α-helix”.
In the case of “PLN: synthetic and recombinant versions of full-length PLN with no lipidation; membrane protein that inhibits SERCA”, the R-state population in data set [1] (in DPC micelles) is ~ 4%. Also, the “phosphorylation efficiency (in words)” value with PKA-C (PLN in DPC micelles, most helical construct studied) is reported as “the phosphorylation efficiency is drastically lower”. In the data set with PKA-C (full-length PLN in DPC micelles), the “catalytic efficiency kcat/Km” value was ~ 0.06 µM^−1s^−1.

(Values after publication PMC3513267 (Journal of molecular biology, 2011).)
